Test results reported in patent US20230094952A1, “Method for Culturing Hematopoietic Stem Cells” (Sumitomo Pharma Co., Ltd., priority 2019, published 2023).

Legend:
[1] = tested on: human hematopoietic stem cells (CD34-positive cells); assay: Confirmation test with human cells: 1-week culture of cord blood Lineage-negative CD34-positive cells, flow cytometry; type: cell-based
Text: Collection of Human Cord Blood-Derived Mononuclear Cells Human cord blood-derived mononuclear cells were subjected to removal of erythrocytes and concentration treatment by using EasySep RBC Depletion Reagent (manufactured by […] Technologies Inc.) to obtain a cell population including hematopoietic stem cells.
First, a CD34-positive cell fraction was partially purified from the thus-obtained cell population including hematopoietic stem cells by using an EASYSep Human Cord Blood CD34 Positive Selection Kit II (manufactured by […] Technologies Inc.). The concentrated CD34-positive cells in a cell population enriched with hematopoietic stem cells and progenitor cells were stained with antibodies for the following cell surface markers.
Staining with the antibodies was performed at 4° C., and the cells were incubated for 30 minutes. For staining with the CD34 antibody, the cells were incubated for 90 minutes. Dead cell staining was performed with SYTOX Blue Dead Cell Stain (manufactured by Life Technologies) in accordance with a method recommended by the manufacturer.
Flow cytometry analysis and cell classification (cell sorting) were performed with a FACS Aria III cell sorter (manufactured by BD Biosciences), wherein fractions being Lineage-negative and CD34-positive were regarded as hematopoietic stem cells, and analysis was performed with the software FlowJo (manufactured by Tree Star, Inc.).
The cells after classification were seeded in a 96-well plate. […]
Each of artemether and the compounds of Example 1-23, Example 1-16, and Example 1-7 was prepared with the cell culture medium at nine final concentrations (0.001 μM, 0.003 μM, 0.01 μM, 0.03 μM, 0.1 μM, 0.3 μM, 1 μM, 3 μM, 10 μM), and added to the above human cells seeded after classification to a final volume of 200 μL/well to act thereon. UM171 (35 nM) was added to some of them to examine the presence or absence of synergistic effect. Thereafter, the cells were cultured in a CO2 incubator under conditions of 37° C. and 5% CO2 for 1 week. Viable cell counts and CD34-positive cell counts were analyzed.
After culture, the cells were stained with the antibodies for the surface markers CD34, CD11b, CD14, CD19, CD20, CD235ab, CD3, CD4, CD56, and CD8a, and the visible cell count and the ratio and post-growth cell count of a CD34 fraction (CD34^+, Lin^−) were measured by using a FACS Aria III cell sorter, and analyzed by using FlowJo (BD Biosciences). The CD34 fraction is a fraction including hematopoietic stem cells and multipotent progenitor cells as main components.

[2] = tested on: human CD34-positive cells transplanted into NOG mouse; assay: In vivo engraftment test with human cells in irradiated NOG mouse (peripheral blood donor chimerism); conditions: 10000 cells transplanted
Procedure: (§1) Each of artemether and the compound of Example 1-23 was prepared with the cell culture medium at a final concentration of 0.003 μM or 0.01 μM, and added to the above human cells seeded after classification (166 cells were seeded per well) to a final volume of 200 μL/well to act thereon. Thereafter, for each condition, 10000 cells in total of a CD34-positive fraction were cultured in a CO2 incubator under conditions of 37° C. and 5% CO2 for 1 week, and the cell count was determined. Among the cells after culture, 10000 cells, a number equal to the number of cells before culture, were transplanted into an immunocompromised NOG mouse exposed to a lethal dose of radiation. As a comparative sample, 10000 fresh cord blood-derived CD34-positive cells (uncultured) were transplanted. For peripheral blood donor chimerism at each specified time after transplantation, the human CD45-positive cell count and the mouse CD45-positive cell count were determined by using a human-specific CD45 antibody and a mouse-specific CD45 antibody, and the peripheral blood donor chimerism was represented as the proportion of human CD45-positive cells to the total of human CD45-positive cells and mouse CD45-positive cells (chimerism rate).

[3] = tested on: human CD34-positive fraction; assay: Ex vivo culture of 10000 human CD34-positive cells before transplantation (cell count); type: cell-based; conditions: 10000 CD34-positive cells cultured 1 week
Procedure: as §1

[4] = UM171 (35 nM) and artemether 0.001 μM
[5] = UM171 (35 nM) and artemether 0.003 μM
[6] = UM171 (35 nM) and artemether 0.01 μM
[7] = UM171 (35 nM) and artemether 0.03 μM
[8] = UM171 (35 nM) and artemether 0.1 μM
[9] = UM171 (35 nM) and artemether 0.3 μM
[10] = UM171 (35 nM) and artemether 1 μM
[11] = compound 0.001 μM, 180 cells before culture, no UM171
[12] = compound 0.003 μM, 180 cells before culture, no UM171
[13] = compound 0.01 μM, 180 cells before culture, no UM171
[14] = compound 0.03 μM, 180 cells before culture, no UM171
[15] = compound 0.1 μM, 180 cells before culture, no UM171
[16] = compound 0.3 μM, 180 cells before culture, no UM171
[17] = compound 1 μM, 180 cells before culture, no UM171
[18] = compound 3 μM, 180 cells before culture, no UM171
[19] = compound 10 μM, 180 cells before culture, no UM171

SMILES: CO[C@H]1O[C@@H]2O[C@@]3(C)CC[C@H]4[C@H](C)CC[C@@H]([C@H]1C)[C@@]24OO3 [Example 1-30, artemether, reference compound]
- CD34-positive cell count [1, 4]: 36 cell
- Viable cell count [1, 4]: 301 cell
- CD34-positive cell count [1, 5]: 102 cell
- Viable cell count [1, 5]: 765 cell
- CD34-positive cell count [1, 6]: 43 cell
- Viable cell count [1, 6]: 323 cell
- CD34-positive cell count [1, 7]: 56 cell
- Viable cell count [1, 7]: 216 cell
- CD34-positive cell count [1, 8]: 93 cell
- Viable cell count [1, 8]: 376 cell
- CD34-positive cell count [1, 9]: 9 cell
- Viable cell count [1, 9]: 240 cell
- CD34-positive cell count [1, 10]: 0 cell
- Viable cell count [1, 10]: 31 cell
- CD34-positive cell count [1, 11]: 59 cell
- Viable cell count [1, 11]: 484 cell
- CD34-positive cell count [1, 12]: 88 cell
- Viable cell count [1, 12]: 921 cell
- CD34-positive cell count [1, 13]: 57 cell
- Viable cell count [1, 13]: 498 cell
- CD34-positive cell count [1, 14]: 23 cell
- Viable cell count [1, 14]: 298 cell
- CD34-positive cell count [1, 15]: 45 cell
- Viable cell count [1, 15]: 555 cell
- CD34-positive cell count [1, 16]: 61 cell
- Viable cell count [1, 16]: 550 cell
- CD34-positive cell count [1, 17]: 35 cell
- Viable cell count [1, 17]: 479 cell
- CD34-positive cell count [1, 18]: 26 cell
- Viable cell count [1, 18]: 380 cell
- CD34-positive cell count [1, 19]: 27 cell
- Viable cell count [1, 19]: 250 cell
- Donor chimerism ([2]; cells cultured with compound 0.003 μM, 1 month after transplantation): 0.041 ± 0.022%
- Donor chimerism ([2]; cells cultured with compound 0.003 μM, 2 months after transplantation): 0.605 ± 0.95%
- Donor chimerism ([2]; cells cultured with compound 0.003 μM, 3 months after transplantation): 2.108 ± 2.479%
- Viable cell count ([3]; compound 0.003 μM): 95954 cell

SMILES: COCCO[C@H]1O[C@@H]2O[C@@]3(C)CC[C@H]4[C@H](C)CC[C@@H]([C@H]1C)[C@@]24OO3 [Example 1-23, (3R,5aS,6R,8aS,9R,10S,12R,12aR)-10-(2-methoxyethoxy)-3,6,9-trimethyldecahydro-12H-3,12-epoxypyrano[4,3-j][1,2]benzodioxepine]
- CD34-positive cell count [1, 11]: 156 cell
- Viable cell count [1, 11]: 1581 cell
- CD34-positive cell count [1, 12]: 65 cell
- Viable cell count [1, 12]: 797 cell
- CD34-positive cell count [1, 13]: 72 cell
- Viable cell count [1, 13]: 1152 cell
- CD34-positive cell count [1, 14]: 63 cell
- Viable cell count [1, 14]: 901 cell
- CD34-positive cell count [1, 15]: 28 cell
- Viable cell count [1, 15]: 537 cell
- CD34-positive cell count [1, 16]: 19 cell
- Viable cell count [1, 16]: 462 cell
- CD34-positive cell count [1, 17]: 16 cell
- Viable cell count [1, 17]: 480 cell
- CD34-positive cell count [1, 18]: 15 cell
- Viable cell count [1, 18]: 269 cell
- CD34-positive cell count [1, 19]: 0 cell
- Viable cell count [1, 19]: 333 cell
- Donor chimerism ([2]; cells cultured with compound 0.01 μM, 1 month after transplantation): 0.299 ± 0.049%
- Donor chimerism ([2]; cells cultured with compound 0.01 μM, 2 months after transplantation): 0.748 ± 0.585%
- Viable cell count ([3]; compound 0.01 μM): 20071 cell

SMILES: C[C@H]1[C@H](C(N)=O)O[C@@H]2O[C@@]3(C)CC[C@H]4[C@H](C)CC[C@@H]1[C@@]24OO3 [Example 1-16, (3R,5aS,6R,8aS,9R,10R,12R,12aR)-3,6,9-Trimethyldecahydro-12H-3,12-epoxypyrano[4,3-j][1,2]benzodioxepine-10-carboxamide]
- CD34-positive cell count [1, 11]: 143 cell
- Viable cell count [1, 11]: 1306 cell
- CD34-positive cell count [1, 12]: 173 cell
- Viable cell count [1, 12]: 1224 cell
- CD34-positive cell count [1, 13]: 116 cell
- Viable cell count [1, 13]: 1301 cell
- CD34-positive cell count [1, 14]: 130 cell
- Viable cell count [1, 14]: 590 cell
- CD34-positive cell count [1, 15]: 92 cell
- Viable cell count [1, 15]: 811 cell
- CD34-positive cell count [1, 16]: 32 cell
- Viable cell count [1, 16]: 549 cell
- CD34-positive cell count [1, 17]: 13 cell
- Viable cell count [1, 17]: 368 cell
- CD34-positive cell count [1, 18]: 13 cell
- Viable cell count [1, 18]: 300 cell
- CD34-positive cell count [1, 19]: 3 cell
- Viable cell count [1, 19]: 264 cell

SMILES: C[C@H]1[C@H](c2ccco2)O[C@@H]2O[C@@]3(C)CC[C@H]4[C@H](C)CC[C@@H]1[C@@]24OO3 [Example 1-7, (3R,5aS,6R,8aS,9R,10R,12R,12aR)-10-(Furan-2-yl)-3,6,9-trimethyldecahydro-12H-3,12-epoxypyrano[4,3-j][1,2]benzodioxepine]
- CD34-positive cell count [1, 11]: 175 cell
- Viable cell count [1, 11]: 1314 cell
- CD34-positive cell count [1, 12]: 113 cell
- Viable cell count [1, 12]: 1013 cell
- CD34-positive cell count [1, 13]: 150 cell
- Viable cell count [1, 13]: 1115 cell
- CD34-positive cell count [1, 14]: 86 cell
- Viable cell count [1, 14]: 905 cell
- CD34-positive cell count [1, 15]: 80 cell
- Viable cell count [1, 15]: 693 cell
- CD34-positive cell count [1, 16]: 5 cell
- Viable cell count [1, 16]: 439 cell
- CD34-positive cell count [1, 17]: 4 cell
- Viable cell count [1, 17]: 196 cell
- CD34-positive cell count [1, 18]: 0 cell
- Viable cell count [1, 18]: 202 cell
- CD34-positive cell count [1, 19]: 0 cell
- Viable cell count [1, 19]: 181 cell
